The record followed here is US20190227053A1, “BIO-ELECTRIC NOSE” (NEW YORK UNIVERSITY, priority 2016, published 2019).

This assay has as its system olfactory bulb glomeruli. As to the kind of experiment: Odor detection by the bio-electronic nose (surface electrode array on the olfactory bulb). The format is in vivo, mouse. The settings on record: FIG. 10. The source says:
In one embodiment utilizing an organism, such as a mouse, as the chemical detector, the mouse is anesthetized and a craniotomy will be made above one of the OBs. A grid electrode will be positioned on the surface of the bulb. The recording is optimized for different conditions: sub or epi-durally or through a thin layer of skull. Alternatively, a surface electrode can be implanted in conjunction with a probe (such as silicone) inserted to the bulb to obtain signals from higher processing levels, such as the mitral/tufted cells, to improve the filtration of early olfactory responses. Typically, the electrode is divided into several areas (1-4) of 8×8 electrode sites. […]
In one embodiment, a method of interpreting information from the at least one electrode relies on the development of reliable techniques for recording on the surface of the bulb and on algorithms for extracting odor information from these recordings. […] Theta waves, indicative of respiration, are used to verify inhalation in conjunction with readings from the pressure signal. […]
For […], at each session a mouse will be positioned in a head-fixed apparatus similar to that used for anesthetized recordings (FIG. 7). The sniffing/breathing pattern and signals continuously recorded from electrode array, and we will expose the mouse to multiple odor presentations (n˜500). […]

pEC50: −log10 of the molar value.

For the compound `CCCCC(=O)OC` [Methyl Valerate], the minimum detectable concentration (odorant detected by the bio-electronic nose) is 10^−12 M.

Turning to `NCCc1ccccc1` [Phenylethylamine], the pEC50 (odorant presented to mouse with electrode array on olfactory bulb, read-out: minimum concentration (EC50) detected by the bio-electronic nose) is 11.00.
